According to the NIST ThermoML archive (doi:10.1016/j.jct.2018.12.018):
Numbers after ± are expanded uncertainties.

Assay: xn = mol fraction of the nth substance listed
Details: Liquid, Vibrating tube method, x1 = 0.617

CCOC(F)(F)C(F)(C(F)(F)F)C(F)(F)F [nonafluoroisobutyl ethyl ether] + CCOC(F)(F)C(F)(F)C(F)(F)C(F)(F)F
mass density [kg/m3]
Details	333.15 K	353.15 K	373.15 K	393.15 K
1000 kPa	–	1295.2 ± 0.9	1242.1 ± 0.9	1183.9 ± 0.9
5000 kPa	–	1316.1 ± 0.9	1268.4 ± 0.9	1218.3 ± 0.9
10000 kPa	–	1338.1 ± 0.9	1295.1 ± 0.9	1250.8 ± 0.9
15000 kPa	–	1357.1 ± 1	1317.3 ± 1	1277 ± 0.9
20000 kPa	–	1373.9 ± 1	1336.2 ± 1	1299.1 ± 1
25000 kPa	1424.2 ± 1.2	1388.9 ± 1.1	1353.3 ± 1.1	1318.3 ± 1
30000 kPa	1436.4 ± 1.2	1402.6 ± 1.2	1368.8 ± 1.1	1335.4 ± 1.1
35000 kPa	1447.8 ± 1.3	1415.3 ± 1.3	1382.9 ± 1.2	1350.9 ± 1.2
40000 kPa	1458.5 ± 1.4	1426.8 ± 1.4	1395.6 ± 1.3	1365.1 ± 1.2
45000 kPa	1468.6 ± 1.5	1437.9 ± 1.4	1407.7 ± 1.4	1378.1 ± 1.3
50000 kPa	1478 ± 1.6	1448.2 ± 1.5	1418.8 ± 1.5	1390.2 ± 1.4
55000 kPa	1487 ± 1.7	1457.9 ± 1.6	1429.4 ± 1.6	1401.6 ± 1.5
60000 kPa	1495.5 ± 1.8	1467.2 ± 1.7	1439.5 ± 1.7	1412.4 ± 1.6
65000 kPa	1503.7 ± 1.9	1475.9 ± 1.8	1448.9 ± 1.8	1422.5 ± 1.7
70000 kPa	1511.5 ± 2.1	1484.5 ± 2	1457.9 ± 1.9	1432.1 ± 1.8
80000 kPa	1526.3 ± 2.3	1500.2 ± 2.2	1474.7 ± 2.1	1450 ± 2
90000 kPa	1540 ± 2.6	1514.8 ± 2.5	1490.2 ± 2.4	1466.2 ± 2.3
100000 kPa	1552.7 ± 2.9	1528.3 ± 2.7	1504.5 ± 2.6	1481.5 ± 2.5
110000 kPa	1564.7 ± 3.1	1541.1 ± 3	1517.9 ± 2.9	1495.5 ± 2.8
120000 kPa	1576 ± 3.4	1553 ± 3.3	1530.5 ± 3.2	1508.7 ± 3
130000 kPa	1586.8 ± 3.7	1564.3 ± 3.6	1542.3 ± 3.4	1521.1 ± 3.3
140000 kPa	1597.2 ± 4	1575.1 ± 3.9	1553.7 ± 3.7	1532.1 ± 3.6
